# From patent US8178704B2, “Inositol-phosphate derivatives and method of detecting inositol-1-phosphate” (CIS Bio International, priority 2004, dated 2012)
# Entries after “also recorded” stand apart in the source; their conditions may differ.
# Assays:
# mGlu5 receptor = test: IP1 assay (TR-FRET) on HEK-293 cells expressing the mGlu5 receptor, effect of an inverse agonist; type: cell-based; details: MPEP 5 nM to 100 μM, 1 hour; FIGS. 16A, 16B
# Protocol: Incubation is performed for 1 hour at 37° C., 5% CO2.
# When the constitutive activity of the mGluR5 receptor is blocked by the addition of MPEP, that will lead to a decrease in the production of intracellular IP1. […] This signal may be either the intensity ratio E665/E620 or the delta F.
# anti-IP1 antibodies = test: Specificity of the anti-IP1 antibodies evaluated by competition ELISA; type: binding, mouse; details: competition with plate-bound IP1-biotin; competitors 1 nM to 100 μM (myo-inositol 10 nM to 1 mM)
# Protocol: NUNC 96-well microtiter plates coated with streptavidin (13 pmol/well) are used. 100 μl of IP1-biotin conjugate prepared according to Example 9 at a concentration of 0.25 μg/ml are distributed and the mixture is incubated for 2 h 30 min at room temperature with stirring. The mixture is washed three times with water containing 0.1% Tween20. 50 μl of solutions of competitors are added so as to prepare the following final concentration ranges: myo-inositol (10 nM at 1 mM), IP1 Sigma (1 nM to 100 μM), IP2 (1 nM to 100 μM), IP3 (1 nM to 100 μM), PiP2 (1 nM to 100 μM) as well as 50 μl of culture supernatants secreting anti-IP1 antibodies. The mixture is incubated for 16 h at 4° C. and then washed three times with water containing 0.1% Tween20. 100 μl of conjugate anti-IgG (mouse)-peroxidase (Sigma # A 0168) diluted 1/60 000 in PBS 0.3% BSA are added. The mixture is incubated for 1 h at room temperature with stirring and then three washes are performed with 10 PBS 0.1% Tween20. 100 μl of TMB substrate (Sigma # T 8665) are distributed and the mixture is incubated for 30 min at room temperature with stirring and then 100 μl of stop reagent (Sigma # S5814) are distributed and the optical densities are measured at 450 nm.
# The optical density at 450 nm is plotted against the logarithm of the concentration of compound whose competition it is desired to test. For all the compounds tested in competition, the maximum optical density OD450˜1.5 is observed at the lowest concentrations (1 nM).
# mGlu1 receptor = molecular target: T1, mGlu1 receptor (Homo sapiens, UniProt Q13255); test: IP1 assay (TR-FRET) on HEK-293 cells transiently expressing the mGlu1 receptor, effect of a positive allosteric modulator; type: cell-based; details: Ro 01-6128 100 nM to 3 mM, 30 min; FIGS. 15A, 15B
# T1 construct: expressed in transfected cells; host or cells: HEK-293 cells, transient, electroporation
# T1 sequence (Q13255 19-1194): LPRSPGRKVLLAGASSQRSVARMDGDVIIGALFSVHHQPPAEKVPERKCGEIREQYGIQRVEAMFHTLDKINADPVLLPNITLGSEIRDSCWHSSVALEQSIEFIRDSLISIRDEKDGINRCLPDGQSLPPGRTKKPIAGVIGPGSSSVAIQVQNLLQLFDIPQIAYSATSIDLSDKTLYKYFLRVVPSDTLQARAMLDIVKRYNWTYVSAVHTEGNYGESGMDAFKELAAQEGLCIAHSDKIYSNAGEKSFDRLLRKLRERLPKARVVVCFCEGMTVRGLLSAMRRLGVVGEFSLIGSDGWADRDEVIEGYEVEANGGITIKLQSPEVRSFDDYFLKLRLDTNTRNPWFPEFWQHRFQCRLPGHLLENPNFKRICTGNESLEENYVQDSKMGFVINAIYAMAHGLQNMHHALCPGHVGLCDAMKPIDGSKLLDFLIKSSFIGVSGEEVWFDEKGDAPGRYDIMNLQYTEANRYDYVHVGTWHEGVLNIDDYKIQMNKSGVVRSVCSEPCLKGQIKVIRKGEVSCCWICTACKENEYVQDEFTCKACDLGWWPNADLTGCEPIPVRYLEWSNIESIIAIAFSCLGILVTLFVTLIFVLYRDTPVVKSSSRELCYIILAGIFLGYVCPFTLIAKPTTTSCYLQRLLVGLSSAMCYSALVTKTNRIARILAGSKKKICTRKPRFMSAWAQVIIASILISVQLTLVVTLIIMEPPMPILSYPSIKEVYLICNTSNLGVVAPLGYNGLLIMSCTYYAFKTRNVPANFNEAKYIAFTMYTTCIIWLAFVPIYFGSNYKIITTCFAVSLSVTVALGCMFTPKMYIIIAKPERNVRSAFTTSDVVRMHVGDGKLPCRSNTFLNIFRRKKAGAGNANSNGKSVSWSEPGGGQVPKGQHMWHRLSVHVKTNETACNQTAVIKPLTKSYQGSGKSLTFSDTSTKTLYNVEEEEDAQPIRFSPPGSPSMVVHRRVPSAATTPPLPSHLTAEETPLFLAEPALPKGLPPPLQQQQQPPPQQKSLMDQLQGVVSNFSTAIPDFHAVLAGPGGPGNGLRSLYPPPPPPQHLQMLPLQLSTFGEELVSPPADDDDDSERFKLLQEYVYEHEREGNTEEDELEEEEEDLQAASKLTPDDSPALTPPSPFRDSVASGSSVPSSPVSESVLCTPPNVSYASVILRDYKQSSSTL
# Protocol: Incubation is performed for 3 h at 37° C., 5% CO2, saturated with moisture, before changing the medium for 100 μl of DMEM containing glutamax (glutamine not degradable to glutamate) and free of serum. Incubation is performed overnight at 37° C. in an incubator containing 5% CO2, saturated with moisture.
# This signal may be either the intensity ratio E665/E620, or the delta F.
# [1] = tested on: anti-IP1 antibody labeled with europium cryptate; test: HTRF test, specificity of the anti-IP1 antibodies (competition with IP1-CY5); type: binding; details: competition with IP1-CY5 conjugate; FIG. 12
# Protocol: All the solutions are prepared in 100 mM HEPES buffer pH 7 containing 0.1% BSA and 0.4 M KF.NB. 50 μl of solution of competitors are distributed into the wells of a black bottom microtiter plate so as to obtain the following final concentrations: myo-inositol (10 nM to 1 mM), IP1 Sigma (1 nM to 1 mM), IP2 (1 nM to 100 μM), IP3 (1 nM to 100 μM), PiP2 (1 nM to 100 μM). 50 μl of a 10 nM solution of IP1-CY5 conjugate of Example 10, 50 μl of a solution containing 1.5 nM of an anti-IP1 antibody labeled beforehand with europium cryptate are then distributed in the order indicated. Two wells are also distributed in which the 50 μl of competitors are replaced with 50 μl of buffer so as to constitute blanks (negative controls). The mixture is incubated for 2 h at 4° C. and a time-resolved fluorescence measurement is performed (td=50 μs, tg=400 μs) at 620 nm and 665 nm on a Rubystar® apparatus (BMG Labtech). The ΔF values are calculated using the blank values as reference. The percentages of inhibition obtained with the various competitors are then calculated with the delta F values taking, as 100% value, the signal obtained in the presence of an excess of the IP1 competitor.
Molecule,decrease in the signal (optical density at 450 nm) caused by the competitor (anti-IP1 antibodies),other results
"Cc1cccc(C#Cc2ccccc2)n1 [MPEP, 2-methyl-6-(phenylethynyl)pyridine]",–,TR-FRET signal (E665/E620 ratio or delta F) as a function of inverse agonist concentration (mGlu5 receptor): the signal for the assay will increase as a function of the concentration of inverse agonist
O[C@H]1[C@H](O)[C@@H](O)[C@H](O)[C@@H](O)[C@H]1O [myo-inositol],does not cause a decrease in the signal even at concentrations of 1 mM,–
CCOC(=O)NC(=O)C(c1ccccc1)c1ccccc1 [PAM],–,TR-FRET signal (E665/E620 ratio or delta F) as a function of PAM concentration (mGlu1 receptor): the signal will decrease as a function of the PAM concentration
"phosphatidylinositol 4,5-biphosphate [PIP2]",not recognized by the antibody,–
O=P(O)(O)OC1[C@H](O)[C@H](O)C(O)[C@H](O)[C@H]1O (stereo partly drawn) [IP1],induces a reduction in the signal for concentrations below the micromolar range; also recorded: only the use of IP1 as competitor makes it possible to measure inhibition of the signal,"inhibition of the signal by the competitor (HTRF, delta F) [1]: only the use of IP1 as competitor makes it possible to measure inhibition of the signal"
